Measured values: publication PMC3203319 (The Journal of antibiotics, 2011)
Values after ≈ are worked out from the molar mass of the structure shown.

Experiments:
MSSA = assay: MIC assay with 50% mouse serum added; type: cell-based, S. aureus; details: fold shift in MIC with 50% mouse serum
MRSA = assay: MIC assay with 50% human serum added; type: cell-based, S. aureus; details: fold shift in MIC with 50% human serum
S.aureus ATCC 33591 = assay: MIC, MRSA panel; type: cell-based; details: Staphylococcus aureus, ATCC33591|MRSA
S.aureus COL = assay: MIC, MRSA panel; type: cell-based; details: Staphylococcus aureus
S.aureus BK 2384 = assay: MIC, MRSA panel; type: cell-based; details: Staphylococcus aureus
S.aureus BSA 643 = assay: MIC, MRSA panel; type: cell-based; details: Staphylococcus aureus
S.aureus BSA 678 = assay: MIC, MRSA panel; type: cell-based; details: Staphylococcus aureus
S.aureus NY 2746 = assay: MIC, MRSA panel; type: cell-based; details: Staphylococcus aureus
S.aureus ACH-0231 = assay: MIC, MRSA panel; type: cell-based; details: Staphylococcus aureus
S.aureus ACH-0232 = assay: MIC, MRSA panel; type: cell-based; details: Staphylococcus aureus
S.epidermidis (MS) SE42 = assay: MIC, Gram-positive panel; type: cell-based; details: Staphylococcus epidermidis
[1] = system: S.haemolyticus (MS) ACH-0013; assay: MIC, Gram-positive panel; type: cell-based; details: Staphylococcus haemolyticus
E.faecalis ATCC 29212 = assay: MIC, Gram-positive panel; type: cell-based; details: Enterococcus faecalis, ATCC29212
E.faecium ATCC 49032 = assay: MIC, Gram-positive panel; type: cell-based; details: Enterococcus faecium, ATCC49032
[2] = system: S.epidermidis (FQR) ACH-0082; assay: MIC, Gram-positive panel; type: cell-based; details: Staphylococcus epidermidis
[3] = system: E.faecalis (VR) ATCC 700802; assay: MIC, Gram-positive panel; type: cell-based; details: Enterococcus faecalis, ATCC700802
[4] = system: E.faecium (VR) ATCC 700221; assay: MIC, Gram-positive panel; type: cell-based; details: Enterococcus faecium, ATCC700221
E.cloacae ACH-0008 = assay: MIC, Gram-negative panel; type: cell-based; details: Enterobacter cloacae, ACH0008
K.pneumoniae ATCC 13883 = assay: MIC, Gram-negative panel; type: cell-based; details: Klebsiella pneumoniae, ATCC13883
S.marcescens ACH-0009 = assay: MIC, Gram-negative panel; type: cell-based; details: Serratia marcescens, ACH0009
S.typhimurium ATCC 14028 = assay: MIC, Gram-negative panel; type: cell-based; details: Salmonella enterica, ATCC14028|TYPHIMURIUM
A.baumanii ATCC 9957 = assay: MIC, Gram-negative panel; type: cell-based; details: Acinetobacter baumannii, ATCC9957
E.coli 1GC2 = assay: MIC, Gram-negative panel; type: cell-based; details: Escherichia coli
E.coli FQR 362265 = assay: MIC, Gram-negative panel; type: cell-based; details: Escherichia coli, FQR362265
P.aeruginosa FQR 467296 = assay: MIC, Gram-negative panel; type: cell-based; details: Pseudomonas aeruginosa, FQR467296
S. aureus ATCC 29213 = assay: Time-kill study; type: cell-based; details: 2, 4 and 8 times the MIC, 24 h time course
C. albicans = assay: MIC against yeast; type: cell-based; details: Candida albicans, read-out: MIC C. albicans
[5] = system: DNA, RNA, and protein synthesis in S. aureus ATCC 29213; assay: Macromolecular synthesis assays; type: cell-based; details: 10× MIC, 20 min incubation
rat red blood cell = assay: Hemolysis, rat red blood cell assay; type: cell-based; details: rat red blood cells, data not shown
Plasma stability [6] = type: in vitro ADME; details: human
Plasma stability [7] = type: in vitro ADME; details: dog
Plasma stability [8] = type: in vitro ADME; details: rat
Plasma stability [9] = type: in vitro ADME; details: monkey
Plasma stability [10] = type: in vitro ADME; details: mouse
[11] = Stability in dosing vehicle; type: physicochemical; details: potassium phosphate at pH 7.4, after 4 h
[12] = Liver microsome stability; type: in vitro ADME; details: human liver microsomes (HLM)
[13] = Liver microsome stability; type: in vitro ADME; details: rat liver microsomes (RLM)
[14] = Liver S9 fraction stability; type: in vitro ADME, human
[15] = Liver S9 fraction stability; type: in vitro ADME; details: rat liver S9 fraction (RLS9)
Gram-positive bacteria = assay: MBC analysis, expanded panel of Gram-positive bacteria; type: cell-based; details: MIC = MBC

SMILES: O=[N+]([O-])c1ccc(-c2nc3cccc(O)c3[nH]2)o1 [Compound 3e, 2-(5-Nitrofuran-2-yl)-3H-benzo[d]imidazole-4ol]
- Fold Shift Mouse (MSSA): 4 ×
- Fold Shift Human (MRSA): 4 ×
- MIC (S.aureus ATCC 33591): 2 µg/mL (≈ 8.16 µM)
- MIC (S.aureus COL): 1 µg/mL (≈ 4.08 µM)
- MIC (S.aureus BK 2384): 1 µg/mL (≈ 4.08 µM)
- MIC (S.aureus BSA 643): 1 µg/mL (≈ 4.08 µM)
- MIC (S.aureus BSA 678): 1 µg/mL (≈ 4.08 µM)
- MIC (S.aureus NY 2746): 2 µg/mL (≈ 8.16 µM)
- MIC (S.aureus ACH-0231): 2 µg/mL (≈ 8.16 µM)
- MIC (S.aureus ACH-0232): 2 µg/mL (≈ 8.16 µM)
- MIC (S.epidermidis (MS) SE42): 1 µg/mL (≈ 4.08 µM)
- MIC [1]: 0.5 µg/mL (≈ 2.04 µM)
- MIC (E.faecalis ATCC 29212): 1 µg/mL (≈ 4.08 µM)
- MIC (E.faecium ATCC 49032): 4 µg/mL (≈ 16.3 µM)
- MIC [2]: 4 µg/mL (≈ 16.3 µM)
- MIC [3]: 1 µg/mL (≈ 4.08 µM)
- MIC [4]: 4 µg/mL (≈ 16.3 µM)
- MIC (E.cloacae ACH-0008): 4 µg/mL (≈ 16.3 µM)
- MIC (K.pneumoniae ATCC 13883): 8 µg/mL (≈ 32.6 µM)
- MIC (S.marcescens ACH-0009): 16 µg/mL (≈ 65.3 µM)
- MIC (S.typhimurium ATCC 14028): 4 µg/mL (≈ 16.3 µM)
- MIC (A.baumanii ATCC 9957): > 64 µg/mL
- MIC (E.coli 1GC2): 16 µg/mL (≈ 65.3 µM)
- MIC (E.coli FQR 362265): 4 µg/mL (≈ 16.3 µM)
- MIC (P.aeruginosa FQR 467296): > 64 µg/mL
- Time-kill result (S. aureus ATCC 29213): bactericidal
- MIC (C. albicans): > 64 µg/mL
- inhibition of DNA, RNA and protein synthesis [5]: significantly inhibited DNA, RNA, and protein at nearly equivalent levels
- hemolysis (rat red blood cell): negative
- half-life (Plasma stability [6]): 270 min
- half-life (Plasma stability [7]): 336 min
- half-life (Plasma stability [8]): 234 min
- half-life (Plasma stability [9]): 120 min
- half-life (Plasma stability [10]): 216 min
- stability in dosing vehicle [11]: no degradation
- time to complete clearance [12]: ≤ 30 min
- time to complete clearance [13]: ≤ 30 min
- remaining ([14]; HLS9, after 60 min of incubation): 13%
- half-life ([14]; human, liver S9 fraction): 12.6 min
- clearance time [15]: < 30 min
- bactericidal activity by MBC analysis (Gram-positive bacteria): bactericidal

SMILES: CN[C@H](CC(C)C)C(=O)N[C@H]1C(=O)N[C@@H](CC(N)=O)C(=O)N[C@H]2C(=O)N[C@H]3C(=O)N[C@H](C(=O)N[C@H](C(=O)O)c4cc(O)cc(O)c4-c4cc3ccc4O)[C@H](O)c3ccc(c(Cl)c3)Oc3cc2cc(c3O[C@@H]2O[C@H](CO)[C@@H](O)[C@H](O)[C@H]2O[C@H]2C[C@](C)(N)[C@H](O)[C@H](C)O2)Oc2ccc(cc2Cl)[C@H]1O [Vancomycin, reference compound]
- MIC (S.aureus ATCC 33591): 1 µg/mL (≈ 0.69 µM)
- MIC (S.aureus COL): 1 µg/mL (≈ 0.69 µM)
- MIC (S.aureus BK 2384): 1 µg/mL (≈ 0.69 µM)
- MIC (S.aureus BSA 643): 1 µg/mL (≈ 0.69 µM)
- MIC (S.aureus BSA 678): 1 µg/mL (≈ 0.69 µM)
- MIC (S.aureus NY 2746): 1 µg/mL (≈ 0.69 µM)
- MIC (S.aureus ACH-0231): 2 µg/mL (≈ 1.38 µM)
- MIC (S.aureus ACH-0232): 1 µg/mL (≈ 0.69 µM)
